The values below come from article PMC4683533, “Discovery of novel INK4C small-molecule inhibitors to promote human and murine hematopoietic stem cell ex vivo expansion” (Scientific Reports, 2015).

This assay deals with HSCs (bone marrow MNCs). The experiment in a line: cobblestone area forming cells (CAFC) assay with limiting dilution assay (LDA). It counts as cell-based, mouse. As to conditions: day 35. As to the method: We also investigated whether the increased number of phenotypic SLAM^+LT-HSCs in short-term culture assays was correlated with an increase in functional LT-HSCs. Cobblestone area forming cells (CAFC) assay combined with limiting-dilution assays (LDA) were performed to measure the frequency of HSCs[19][22][30]. Compared with the control group (HSC frequency is 1 in 112,559 of the original plated cells), the frequency of HSC at day 35 (indicating the activity of hematopoietic reconstitution capacity) was 2.7-fold and 3.0-fold higher in the cultures treated with XIE18–6 (HSC frequency is 1 in 42,490 of the original plated cells) and compound 40 (HSC frequency is 1 in 37,524 of the original plated cells) (p < 0.001, Fig. 3C), respectively.
Freshly isolated bone marrow MNCs from mice, 6–8 weeks old, were plated in a 24-well plate with 1 mL Dexter’s medium at a density of 2 × 10^6 cells per mL in the absence or presence of different doses of the tested compounds. The culture was maintained at 33 °C with 5% CO2. The number of cobblestone areas (CAs) was counted weekly. The medium was also replaced with half fresh medium on a weekly basis. For the limiting dilution analysis (LDA) of the test cells, different limiting doses were plated on the irradiated stromal cells in 96-well plates containing 200 μL of M5300 medium (StemCell Technologies) supplemented with 10^−6 M hydrocortisone. Each group was done with 20 replicates well. Small-molecule compounds were added to the co-culture system at different doses. Half of the medium in each well was replaced with fresh medium containing the test compounds weekly. The existence of CA in each well was evaluated under an inverted microscope at weekly intervals for 5 weeks. Based on the Poisson distribution of the negative wells, the frequency of long-term initiating cells was calculated with L-Calc software (StemCell Technologies).

As to `O=C([O-])c1ccc(S(=O)(=O)NC2CCCCC2)cc1.[Na+]` [Compound 40, sodium 4-(N-cyclohexylsulfamoyl)benzoate], the “HSC frequency (1 in x of the original plated cells)” value was 37,524 and the “frequency of HSC, fold higher than control group” value is listed as 3.0 fold.
